Experimental data published in publication PMC4990478 (Nature chemical biology, 2016).
One block for each molecule: values may come before it. Where a SMILES comes first, the peptide text is derived from it. [ ]: non-standard residue; d: D form. The star is where a group is joined. ξ: configuration not given here. Aoe(9ξ) = N[C@@H](CCCCCC(=O)C1CO1)C(=O)O; AMC = Cc1cc(=O)oc2cc(N*)ccc12; dPip = O=C(O)[C@H]1CCCCN1

Assays:
[1] = tested on: HD1-A (a class II HDAC); settings: cited from earlier work
[2] = tested on: maize HD1-B (a class I HDAC); settings: cited from earlier work
[3] = target: T1, zCD1 (Danio rerio, UniProt F8W4B7); experiment: Steady-state kinetics, fluorogenic substrates; format: biochemical
T1 sequence (F8W4B7 60-419): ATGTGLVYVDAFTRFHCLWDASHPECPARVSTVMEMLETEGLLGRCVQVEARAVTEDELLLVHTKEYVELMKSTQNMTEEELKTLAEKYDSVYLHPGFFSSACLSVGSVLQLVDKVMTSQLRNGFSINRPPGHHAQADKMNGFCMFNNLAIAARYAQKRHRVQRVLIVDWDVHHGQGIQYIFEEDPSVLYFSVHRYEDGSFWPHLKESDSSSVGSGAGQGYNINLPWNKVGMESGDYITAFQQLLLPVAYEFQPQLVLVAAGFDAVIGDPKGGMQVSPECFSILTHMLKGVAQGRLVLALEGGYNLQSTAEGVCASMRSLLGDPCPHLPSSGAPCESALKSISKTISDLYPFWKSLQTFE

[4] = tested on: HDAC6; settings: cited from earlier work
[5] = tested on: HDAC1; settings: cited from earlier work

Compound: C[C@@H]1NC(=O)[C@H]2CCCN2C(=O)[C@H](CCCCCC(=O)[C@@H]2CO2)NC(=O)[C@@H](C)NC1=O [HC toxin, cyclo-(L-Ala-D-Ala-L-Aoe-D-Pro)]
- mode of inhibition [1]: reversible inhibition
- mode of inhibition [2]: irreversible inhibition

- kcat/KM reduced, zCD1 compared with zCD2 [3]: 7 fold
Compound: CC(=O)NCCCC[C@H](NC(=O)CNC(=O)[C@H](CCCNC(=N)N)NC(C)=O)C(=O)Nc1ccc2c(C)cc(=O)oc2c1 [Substrate 8, Ac-Arg-Gly-Lys(Ac)-AMC] (Ac-Arg-Gly-Lys(Ac)-{AMC})

Compound: O=C(CCCCC[C@@H]1NC(=O)[C@H]2CCCCN2C(=O)[C@H](Cc2ccccc2)NC(=O)[C@H](Cc2ccccc2)NC1=O)C1CO1 (some centres unmarked) [trapoxin] (cyclo(FF[dPip][Aoe(9ξ)]))
- mode of inhibition [4]: reversible inhibitor
- mode of inhibition [5]: potent irreversible inhibitor
